No end group written: not given here.
Assays:
Assay in all cases: REVEAL Epitope Discovery System in vitro MHC-peptide binding assay
[1] = molecular target: HLA-A*02:01 (Homo sapiens, UniProt P04439, D140Y/D185E/D98H/E176V/E277Q/G131W/G231S/I119V/I121R/I166T/I218V/L300P/L318F/N151K/N90K/P208A/P217A/Q86G/Q94H/R138H/R169H/T345S); settings: binding normalized to positive control peptide set at 100%, greater than 50 considered good or high affinity binding
Procedure: (§1) Actual binding affinities for certain HLA class I alleles (A*02:01, A*03:01, A*11:01, and B*08:01) were assessed in vitro for exemplary overlapping 9 amino acid peptide sequences within a portion of the 26 amino acid junction region spanning the CD28 and 4-1BB junction. Specifically, assessment was of a series of overlapping 9-mer peptides derived from the sequence […] (set forth in SEQ ID NO: 7), which contains a portion of the CD28 transmembrane domain and 4-1BB costimulatory domain spanning the junction between the domains (bond joining the two amino acids noted in underline). In addition, a series of overlapping 9-mer peptides of each of a number of different variants of this portion also were assessed, each variant containing a mutation or mutations in this region as described in Example 2.
(§2) The various 9-mer overlapping peptides were synthesized and their purity tested by MALDI-TOF Mass Spectrometry. The synthetic peptides were then incubated with recombinant MHC molecules to assess binding properties using the REVEAL Epitope Discovery System, which is a high-throughput binding assay that measures the degree to which each peptide is able to stabilize a ternary MHC-peptide complex (Prolmmune, Oxford, United Kingdom). Each peptide was separately tested for this ability with respect to each of the HLA class I alleles, normalized to the degree observed for a positive control (known T cell epitope for the relevant allele). The results are reported as a score, in which the binding was normalized to the positive control peptide set at 100%. In this analysis, a score of greater than 50 generally was considered to represent good or high affinity binding.

[2] = molecular target: HLA-B*08:01 (Homo sapiens, UniProt P01889, A93T/A95T/D138N/E176V/E187T/K202T/Q94N/R180D/S35A/V36M/Y33D/Y91F); settings: binding normalized to positive control peptide set at 100%, >50 considered good or high affinity binding
Procedure: as §1, §2

[3] = molecular target: HLA-A*03:01 (Homo sapiens, UniProt P04439); settings: REVEAL score, binding normalized to positive control peptide set at 100%; greater than 50 considered good or high affinity binding
Procedure: as §1, §2

[4] = molecular target: HLA-A*11:01 (Homo sapiens, UniProt P04439, A114D/D185E/E176A/F33Y/L180Q/S129P/T187R); settings: binding normalized to positive control peptide set at 100%, >50 considered good or high affinity binding
Procedure: as §1, §2

Compound | A*02:01 In Vitro Score [1] | B*08:01 In Vitro Score [2] | A*03:01 In Vitro [3] | A*11:01 In Vitro Score [4]
CC(C)C[C@H](NC(=O)[C@H](CCCCN)NC(=O)[C@H](CCCCN)NC(=O)[C@H](CCCNC(=N)N)NC(=O)CNC(=O)[C@H](CCCNC(=N)N)NC(=O)[C@H](C)NC(=O)[C@@H](NC(=O)[C@@H](N)Cc1c[nH]c2ccccc12)C(C)C)C(=O)O | 8.80 | 32.40 | 1.30 | 13.80
WVKRGAKKL | 4.70 | 34.10 | 4.10 | 4.60
AFIIFWVQR | 0.40 | 0.00 | 0.20 | 15.00
IFWVKRGSK | 2.40 | 1.20 | 10.40 | 47.90
AFIIFWVKR | 0.50 | 1.90 | 5.70 | 25.90
CC(C)C[C@H](NC(=O)[C@H](CCCCN)NC(=O)[C@H](CCCCN)NC(=O)[C@H](CO)NC(=O)CNC(=O)[C@H](CCCNC(=N)N)NC(=O)[C@H](CCC(N)=O)NC(=O)[C@@H](NC(=O)[C@@H](N)Cc1c[nH]c2ccccc12)C(C)C)C(=O)O | 4.40 |  | 1.20 | 5.90
IIFWVKRGH | 5.30 | 0.10 | 26.60 | 19.50
FIIFWVSRG | 0.20 | 0.40 | 0.10 | 5.10
FIIFWVLRG | 7.20 | 0.20 | 0.10 | 2.40
IFWVQRGNK | 16.10 | 0.10 | 23.20 | 67.50
CC[C@H](C)[C@H](N)C(=O)N[C@@H](Cc1ccccc1)C(=O)N[C@@H](Cc1c[nH]c2ccccc12)C(=O)N[C@H](C(=O)N[C@@H](CCCCN)C(=O)N[C@@H](CCCNC(=N)N)C(=O)NCC(=O)N[C@@H](CC(N)=O)C(=O)N[C@@H](CCCCN)C(=O)O)C(C)C | 3.50 | 0.10 | 8.00 | 45.90
AFIIFWVAR | 2.20 | 0.20 | 0.50 | 51.80
WVKRGNKKL | 2.40 | 65.90 | 0.90 | 4.10
AFIIFWVSR | 4.50 | 0.30 | 0.30 | 54.00
FWVKRGSKK | 1.90 | 0.10 | 5.90 | 5.60
WVKRGLKKL | 24.50 | 65.70 | 10.00 | 22.10
VAFIIFWVS | 70.60 | 0.10 | 0.70 | 25.10
CC[C@H](C)[C@H](N)C(=O)N[C@H](C(=O)N[C@@H](Cc1ccccc1)C(=O)N[C@@H](Cc1c[nH]c2ccccc12)C(=O)N[C@H](C(=O)N[C@@H](CCCCN)C(=O)N[C@@H](CCCNC(=N)N)C(=O)NCC(=O)N[C@@H](CC(N)=O)C(=O)O)C(C)C)[C@@H](C)CC | 9.30 | 0.90 | 4.30 | 42.10
WVKRGRKKA | 4.50 | 3.10 | 0.90 | 3.10

Compound | A*02:01 In Vitro Score [1] | B*08:01 In Vitro Score [2] | A*03:01 In Vitro [3] | A*11:01 In Vitro Score [4]
VAFIIFWVQ | 5.30 | 0.20 | 0.20 | 3.90
IFWVHRGRK | 7.10 | 0.10 | 37.80 | 36.60
IFWVLRGRK | 2.90 | 0.00 | 19.50 | 29.30
IIFWVHRGR | 4.70 | 0.20 | 30.10 | 77.50
AFIIFWVLR | 5.70 | 0.20 | 0.30 | 17.20
CC[C@H](C)[C@H](N)C(=O)N[C@@H](Cc1ccccc1)C(=O)N[C@@H](Cc1c[nH]c2ccccc12)C(=O)N[C@H](C(=O)N[C@@H](CCCCN)C(=O)N[C@@H](CCCNC(=N)N)C(=O)NCC(=O)N[C@@H](Cc1c[nH]cn1)C(=O)N[C@@H](CCCCN)C(=O)O)C(C)C | 2.20 | 3.20 | 9.00 | 30.90
WVKRGHKKL | 3.90 | 47.60 | 1.40 | 2.80
CC[C@H](C)[C@H](NC(=O)[C@H](Cc1ccccc1)NC(=O)[C@H](C)N)C(=O)N[C@H](C(=O)N[C@@H](Cc1ccccc1)C(=O)N[C@@H](Cc1c[nH]c2ccccc12)C(=O)N[C@H](C(=O)N[C@@H](CCCNC(=N)N)C(=O)N[C@@H](CCCNC(=N)N)C(=O)O)C(C)C)[C@@H](C)CC | 1.40 | 0.30 |  | 1.50
IFWVARGRK | 1.00 | 0.00 | 53.70 | 34.90
IIFWVKRGR | 1.70 | 0.00 | 24.30 | 54.50
WVLRGRKKL | 2.40 | 4.00 | 0.70 | 3.20
IFWVQRGAK | 11.70 | 0.20 | 17.00 | 61.30
FIIFWVKRG | 10.10 | 0.10 | 1.40 | 0.40
IFWVKRGRK | 4.50 | 0.40 | 20.50 | 29.30
IFWVQRGSK | 33.50 | 0.00 | 20.30 | 103.30
IIFWVQRGR | 5.80 | 0.10 | 18.00 | 72.80
WVQRGAKKL | 3.00 | 11.40 | 2.00 | 3.80
FWVQRGAKK | 2.20 | 0.00 | 2.70 | 18.30
